Measurements: patent US9605013B2, “Derivatives of hemin with antibacterial and antiviral activity” (OBSCHESTVO S OGRANICHENNOI OTVETSTVENNOSTIYU …, priority 2011, dated 2017)

Assays:
[1] = tested on: Enterococcus faecalis No. 559; experiment: Antibacterial specific activity, twofold dilutions, visual growth evaluation; type: cell-based; settings: E. faecalis 559; 36° C., 24 hours
Procedure: (§1) The specific activity of compounds also was determined against bacteria strains such as Staphylococcus aureus No. 25923 ATCC (American Type Culture Collection); Staphylococcus aureus No. 100 KC; Staphylococcus epidermidis No. 533; Enterococcus faecalis No. 559; Enterococcus faecium No. 569, Staphylococcus aureus No. 5 (MRSA), Staphylococcus aureus No. 3797 (MRSA). Staphylococcus aureus was cultured on the Trypticase Soy Agar (BBL) commercially available dry medium. Enterococcus faecalis was cultured on the Columbia Agar (BBL) commercially available dry medium. These media were sterilized by autoclaving at 121° C. for 15 min. Bacterial inoculum was constant and was 5×10^5 CFU/ml (10^5 CFU/0.2 ml). For water-soluble compounds, wells from 2nd through 8th were added with the solvent (water) in an amount of 15 μL per well, then the 1st well was added with 30 μL of the stock solution of the tested compound in […] with a concentration of […], and the concentration was adjusted to 0.007×10^3 M by serial twofold dilutions. A 10-μL portion was taken from every well, and 190 μL of the bacterial culture (10^5 CFU) was added per well. For DMSO-soluble compounds, wells from 2nd through 8th were added with the solvent (DMSO) in an amount of 10 μL per well, then the 1st well was added with 20 μL of the stock solution of the tested compound in […] with a concentration of […], and the concentration was adjusted to 0.039×10^3 M by serial twofold dilutions. A 2-μL portion was taken from each well, and 198 μL of the bacterial culture (10^5 CFU) was added per well.
(§2) The control comprised wells free of tested compounds (culture growth control). In addition, purity control of nutritional media and solvents was used. Plates were incubated in a thermostat at 36° C. for 24 hours.
(§3) Culture growth was evaluated visually by comparison of how microorganisms grew in the presence of tested compounds and in the absence of them. MIC was set equal to the last dilution of a tested agent which suppressed bacterial culture growth.

Escherichia coli 4300 = experiment: as above; type: cell-based; settings: E. coli 4300; 36° C., 24 hours
Procedure: [Worded in the source for another organism; this organism is reported under the same test.] as §1, §2, §3

[2] = tested on: Staphylococcus aureus No. 100 KC; experiment: as above; type: cell-based; settings: S. aureus 100 KC; 36° C., 24 hours
Procedure: as §1, §2, §3

[3] = tested on: Staphylococcus aureus No. 25923 ATCC; experiment: as above; type: cell-based; settings: S. aureus 25923; 36° C., 24 hours
Procedure: as §1, §2, §3

[4] = tested on: Staphylococcus aureus No. 3797 (MRSA); experiment: as above; type: cell-based; settings: St. aur No. 3797 MRSA; 36° C., 24 hours
Procedure: as §1, §2, §3

[5] = tested on: Staphylococcus aureus No. 5 (MRSA); experiment: as above; type: cell-based; settings: St. aur No. 5 MRSA; 36° C., 24 hours
Procedure: as §1, §2, §3

[6] = tested on: Staphylococcus epidermidis No. 533; experiment: as above; type: cell-based; settings: S. epidermis 533; 36° C., 24 hours
Procedure: as §1, §2, §3

[7] = tested on: Vancomycin-resistant Enterococcus faecium 569; experiment: as above; type: cell-based; settings: Vancomycin-resistant E. faecium 569; 36° C., 24 hours
Procedure: as §1, §2, §3

[8] = tested on: Herpes Simplex Virus type 2 strain G (No. VR-734 ATCC); experiment: Antiviral activity, virus cytopathogenic action in Vero cells; type: cell-based; set-up: key: 0: CPA (cytopathogenic action) is not detected; 1: up to 25% virus-infected monolayer; from 25% to 50%; 3: from 50% to 75%; 4: from 75% to 100%; settings: 48 hours
Procedure: […] used in the study were used Herpes Simplex Virus type 1 (the Collection of Microorganisms at the Scientific Research Institute of Virology, strain EC), Herpes Simplex Virus type 2 strain G (No. VR-734 ATCC), and human cytomegalovirus strain AD169 (No. VR-538 ATCC). Herpes Simplex viruses type 1 and type 2 were cultured in Vero cells. The cells were incubated in MEM Eagle growth medium (MEM, BioloT, St-Petersburg, 1.3.3) supplemented with 10% fetal bovine serum (BioloT, St-Petersburg, 1.3.12) in Sanyo MCO-15AC gas-flow thermostat (37° C., 5% CO2) (Tokyo, Japan). A seed dose was 2×10^5 cells/ml in the starting inoculum or 2×10^4 cells/well. Herpes Simplex viruses were cultured under the same conditions in the MEM medium without serum (maintenance medium). Starting viral titers were 10^7 TCID50/ml.
For DMSO-soluble preparations, stock solutions were prepared in a concentration of 10 mM in DMSO. For water-soluble preparations, a stock solution prepared had the same concentration in the MEM medium (Minimal Essential Medium) for cell cultures. To control cytotoxicity (see below), the stock solution was diluted in the medium to a concentration of 100 μM and ten-fold serial dilutions of the preparations were made in the MEM medium (for DMSO-soluble compounds—in the MEM medium comprising 3% DMSO). The following concentrations of the preparations were used in the study of […]: if toxicity was not found, the concentrations of 100 μM preparations were 100, 10 and 1 μM; if toxicity was detected, the concentrations of 100 μM preparations were 10, 1, and 0.1 μM. Acyclovir (10 μg/ml) was used for Herpes Simplex viruses of both types as a reference preparation to control the viral model validity.
To study antiviral activity, plate wells with a cell monolayer were added with the preparations in an amount of 0.1 ml/well. To compensate a reduction in the concentration of the preparations, which takes place in the following addition of viruses, twofold concentrations of compounds (i.e. 200, 20 and 2 or 20, 2 and 0.2 μM for […] concentrations of 100 μM preparations, respectively) were used, incubated for an hour and then were infected with the examined 0.1 ml/well viruses in doses 1, 10 and 100 TCID50 (50% tissue infectious dose).
The virus-specific cytogenic action was manifested in an increase in the size of cells, their rounding, and detachment from a substrate. These morphological characteristics served as their marked difference from the cells subjected to a toxic action of high concentrations of the examined preparations. The latter acquired spindle-like shape, lost contacts with neighboring cells of the monolayer, and their boundaries became more distinct.
Intensity of the virus-specific changes in the cells were semi-quantified using a 4-score system: 0—CPA (cytopathogenic action) is not detected; 1—up to 25% virus-infected monolayer; 2—from 25% to 50%; 3—from 50% to 75%; and 4—from 75% to 100%. The antiviral activity of a compound was evaluated according to their ability to reduce the manifestation of cytopathogenic action in the plate wells compared to the control values. Differences with the control values by 1 score and more were considered to be significant.

[9] = tested on: Bacillus subtilis BKM B-501; experiment: Antibacterial activity, serial dilutions in liquid MH medium; type: cell-based; settings: for MIC: MH medium, 20 h, 37° C., 100% growth inhibition
Procedure: (§4) The antibacterial activity of the compounds was determined against strains of gram-positive bacteria such as Staphylococcus aureus 209P, Enterococcus faecalis BKM B-871, Micrococcus luteus BKM Ac-2230, Bacillus subtilis BKM B-501, and gram-negative bacteria such as Pseudomonas aeruginosa PAO1 and Escherichia coli KM MGU C-600. BKM strains were acquired from the All-Russia Collection of Microorganisms at the Institute for Biochemistry and Physiology of Microorganisms, Russian Academy of Sciences. Strain Staphylococcus aureus 209P was acquired from the Collection of Microorganisms at the Department of microbiology of the Faculty of Biology of Lomonosov Moscow State University, and Pseudomonas aeruginosa PAO1 was acquired from the Collection of Microorganisms at the Institute of Bioorganic Chemistry of the Russian Academy of Sciences.
(§5) The main parameters characterizing the antibacterial activity are the minimal inhibitory concentration (MIC) and minimal bactericidal concentration (MBC). […] MBC is the least concentration that causes the death of all cells.
(§6) MIC was quantified by inhibiting culture growth in a liquid medium with serial dilutions of compounds using a modified procedure [Amsterdam, D., 1966. “Susceptibility testing of antimicrobials in liquid media,” pp. 52-111. In Loman, V., ed. Antibiotics in laboratory medicine, 4th ed. Williams and Wilkins, Baltimore].
(§7) Bacteria were cultured and tested on an MH liquid medium (Mueller-Hinton medium: a dry extract of beef broth, 4 g/L; starch, 1.5 g/L; casein hydrolyzate, 17.5 g/L; Sigma-Fluka Catalog No. 70192) at 37° C., 100% humidity, and under stirring. Cultures (within 4 to 7 passages after thawing) in the exponential growth phase were used for tests.
(§8) All tested compounds absorb light at 595 nm, a wavelength used for evaluating bacterial culture growth. Therefore, a correction for absorption was applied in estimating the optical density of bacterial suspensions for each compound with account for its concentration in the well. Bacterial growth inhibition (GI) as percentage after 20 hours of incubating cells with compounds was derived from the optical density (A) measured in every well at a wavelength of 595 nm using the equation: GIi=[(Act−Ac0)−(Ait−Ai0)]×100/(Act−Ac0), (1) wherein the subscripts have the following meanings: i denotes the well number, c denotes a control well with bacteria whereto the tested compound is not inserted, 0 refers to the measurement taken immediately once the tested compound was inserted to the well, and t refers to the measurement taken 20 hours after the compound was inserted.
(§9) The protocol for the determination of experimental antibacterial activity of the tested compounds was as follows. A cryovial with the test strain culture in a medium with 7% DMSO stored in liquid nitrogen, was rapidly defrosted, and 1.5 mL of the fresh MH medium was inoculated with 100 μL of the cell suspension. Cells were grown for one day at 37° C. and stirred on an orbital shaker at 150 rpm. The morphologic features of the strain and the absence of contamination with foreign bacteria were verified by: (a) inoculation on an agarized (15 g/L agar) MH medium and observation of the shape and color of the grown colonies and (b) examination of characteristic morphologic features under a microscope (Mikmed-2, LOMO, Russia) equipped with a 40× objective lens. Further, the bacteria were cultured in 1 mL of the liquid MH medium at 37° C. under stirring. The cells were reseeded every day. Cell cultures were used in tests starting with 3rd reseeding and ending with 6th one.
(§10) For testing, 5 μL of a bacterial suspension in the stationary growth phase was transferred to 1 mL of a sterile MH medium and incubated until the exponential growth phase was attained (3 to 5 h, 37° C., stirring at 150 rpm). To estimate the microorganism concentration, the optical density (A) of the resulting bacterial culture was measured at a wavelength of 595 nm. […]

[10] = tested on: Micrococcus luteus BKM Ac-2230; experiment: as above; type: cell-based; settings: for MIC: MH medium, 20 h, 37° C., 100% growth inhibition; for MBC: no colonies on agarized MH medium
Procedure: as §4, §5, §6, §7, §8, §9, §10

[11] = tested on: Enterococcus faecalis BKM B-871; experiment: as above; type: cell-based; settings: MH medium, 20 h, 37° C., 100% growth inhibition
Procedure: as §4, §5, §6, §7, §8, §9, §10

[12] = HSV-2, virus dose 1, concentration 0.1 μM
[13] = HSV-2, virus dose 1, concentration 1 μM
[14] = HSV-2, virus dose 1, concentration 10 μM
[15] = HSV-2, virus dose 10, concentration 0.1 μM
[16] = HSV-2, virus dose 10, concentration 1 μM
[17] = HSV-2, virus dose 10, concentration 10 μM
[18] = HSV-2, virus dose 100, concentration 0.1 μM
[19] = HSV-2, virus dose 100, concentration 1 μM
[20] = HSV-2, virus dose 100, concentration 10 μM

Row | Substance | MIC [1] | MIC (Escherichia coli 4300) | MIC [2] | MIC [3] | MIC [4] | MIC [5] | MIC [6] | MIC [7] | manifestation of the virus CPA [8, 12] | manifestation of the virus CPA [8, 13] | manifestation of the virus CPA [8, 14] | manifestation of the virus CPA [8, 15] | manifestation of the virus CPA [8, 16] | manifestation of the virus CPA [8, 17] | manifestation of the virus CPA [8, 18] | manifestation of the virus CPA [8, 19] | manifestation of the virus CPA [8, 20] | water solubility (Water solubility) | MIC [9] | MIC [10] | other results
1 | 6,7-bis-[(Diamide N^α-L-Glycyl)-L-glutamyl]-Protohemin (IX) [XIII] | 12.5 µM | >50.0 µM | 12.5 µM | 12.5 µM | 50 µM | 83 µM | 12.5 µM | >50.0 µM | 1 (up to 25% virus-infected monolayer) | 1 (up to 25% virus-infected monolayer) | 0.5 scores | 2 (from 25% to 50%) | 2 (from 25% to 50%) | 1^1 (up to 25% virus-infected monolayer) | 3 (from 50% to 75%) | 3 (from 50% to 75%) | 3 (from 50% to 75%) | water-soluble | – | – | –
2 | 6,7-bis-[(Dimethyl Ester N^α-L-Glycyl)-L-glutamyl]-Protohemin (IX) [XIV] | 3.12 µM | >50.0 µM | 2.6 µM | 0.39 µM | 2.6 µM | 3.12 µM | 1.04 µM | >50.0 µM | – | – | – | – | – | – | – | – | – | water-insoluble | 6.3 µM | 1.6 µM | MBC ([9]; no colonies on agarized MH medium): 25 µM; MBC [10]: 6.3 µM
3 | 6,7-bis-[(Dimethyl Ester N^α-L-Seryl)-L-glutamyl]-Protohemin (IX) | – | – | – | – | – | – | – | – | 1 (up to 25% virus-infected monolayer) | 1 (up to 25% virus-infected monolayer) | 0^1 | 2 (from 25% to 50%) | 2 (from 25% to 50%) | 1.5 scores | 3 (from 50% to 75%) | 3 (from 50% to 75%) | 3 (from 50% to 75%) | water-soluble | 50 µM | 12.5 µM | MIC [11]: 50 µM; MBC [10]: 25 µM
